Laboratory results: US20100209496A1, “LIQUID AND SEMI-SOLID PHARMACEUTICAL FORMULATIONS FOR ORAL ADMINISTRATION OF A SUBSTITUTED AMIDE” (priority 2006, published 2010)
Like-named read-outs stand apart in the source and are kept apart here. Marks after values point to notes of the source that are not given here.

Columns and labels:
[1] = Compound I Form I solubility in various liquid vehicles; assay type: physicochemical
[2] = Pharmacokinetics after oral administration of liquid filled capsules; assay type: in vivo, male Beagle dogs; conditions: male, Beagle, dog, plasma, 40 mg, 40 mg oral, Mean ± SD; for AUC(0-t): read-out: AUC0-24
[3] = Compound I chemical stability in various liquid vehicles at 40° C.; assay type: physicochemical; conditions: 40° C. vs −20° C. control
Description: Stability of 3-[(3aR,4R,5S,7aS)-5-{(1R)-1-[3,5-bis(Trifluoromethyl)phenyl]ethoxy}-4-(4-fluorophenyl)-octahydro-2H-isoindol-2-yl]cyclopent-2-en-1-one, (Compound I) in Various Liquid Vehicles

[4] = liquid filled capsules with Imwitor742/Tween80 (75:25), male Beagle dogs
[5] = liquid filled capsules with Imwitor742:Tween80 (50:50), male Beagle dogs
[6] = liquid filled capsules with pure Imwitor742, male Beagle dogs

In the case of C[C@@H](O[C@H]1CC[C@@H]2CN(C3=CC(=O)CC3)C[C@H]2[C@@H]1c1ccc(F)cc1)c1cc(C(F)(F)F)cc(C(F)(F)F)c1 [Compound I, 3-[(3aR,4R,5S,7aS)-5-{(1R)-1-[3,5-bis(Trifluoromethyl)phenyl]ethoxy}-4-(4-fluorophenyl)-octahydro-2H-isoindol-2-yl]cyclopent-2-en-1-one], the Solubility ([1]; Form I, 0.5% Methylcellulose, Room Temp) is reported as 0.001 mg/g of formulation, the Solubility ([1]; Form I, 1:1 Imwitor:Tween + 1 eq HCl, Room Temp) is reported as >57 mg/g of formulation and the Solubility ([1]; Form I, Acconon MC-8, 35° C.) is reported as <1 mg/g of formulation. The Solubility ([1]; Form I, Capmul MCM C-8, 35° C.) was 53 mg/g of formulation, the Solubility ([1]; Form I, Capmul PG-8, 35° C.) was 50 mg/g of formulation and the Solubility ([1]; Form I, Capmul PG-12, 35° C.) was 25 mg/g of formulation. For the same compound, the Solubility ([1]; Form I, Capryol PGMC, 30° C.) was 29 mg/g of formulation, the Solubility ([1]; Form I, Capryol PGMC, Room Temp) was >6 mg/g of formulation and the Solubility ([1]; Form I, Captex 200P, 35° C.) was 2 mg/g of formulation. The Solubility ([1]; Form I, Corn Oil, Room Temp) was <0.1 mg/g of formulation, the Solubility ([1]; Form I, Cremophor EL, Room Temp) was 2 mg/g of formulation and the Solubility ([1]; Form I, Ethanol, Room Temp) was 58 mg/g of formulation. The Solubility ([1]; Form I, Gelucire 44/14, 65° C.) was 4 mg/g of formulation, the Solubility ([1]; Form I, Glycerin, Room Temp) was <0.5 mg/g of formulation and the Solubility ([1]; Form I, Imwitor 308, 35° C.) was 58 mg/g of formulation. For the same compound, the Solubility ([1]; Form I, Imwitor 642, 35° C.) was 78 mg/g of formulation, the Solubility ([1]; Form I, Imwitor 742, 30° C.) was 43 mg/g of formulation and the Solubility ([1]; Form I, Imwitor 742, 35° C.) was 46 mg/g of formulation. For the same compound, the Solubility ([1]; Form I, Imwitor 742, Room Temp) was >6 mg/g of formulation, the Solubility ([1]; Form I, Imwitor 988, 35° C.) was 54 mg/g of formulation and the Solubility ([1]; Form I, Labrafil M1944CS, 35° C.) was 4 mg/g of formulation. The Solubility ([1]; Form I, Labrafil M2125CS, 35° C.) was 4 mg/g of formulation, the Solubility ([1]; Form I, Labrafil M2125CS, Room Temp) was 5 mg/g of formulation and the Solubility ([1]; Form I, Labrasol, 35° C.) was 11 mg/g of formulation. The Solubility ([1]; Form I, Labrasol, Room Temp) was 7 mg/g of formulation, the Solubility ([1]; Form I, Miglyol 812, Room Temp) was 0.4 mg/g of formulation and the Solubility ([1]; Form I, Olive Oil, Room Temp) was <0.1 mg/g of formulation. The Solubility ([1]; Form I, PEG 400:water (92:8) + 1 eq HCl, Room Temp) was 24 mg/g of formulation, the Solubility ([1]; Form I, PEG 400:water (92:8) + 1 eq NaOH, Room Temp) was 1.3 mg/g of formulation and the Solubility ([1]; Form I, PEG 400:water (92:8), Room Temp) was 1.0 mg/g of formulation. For the same compound, the Solubility ([1]; Form I, PEG 400, Room Temp) was 2 mg/g of formulation, the Solubility ([1]; Form I, Peceol, 35° C.) was 19 mg/g of formulation and the Solubility ([1]; Form I, Propylene Glycol, 35° C.) was 8 mg/g of formulation. For the same compound, the Solubility ([1]; Form I, Propylene Glycol, Room Temp) was 5 mg/g of formulation, the Solubility ([1]; Form I, Soybean Oil, Room Temp) was <0.1 mg/g of formulation and the Solubility ([1]; Form I, Tween 20, Room Temp) was 2 mg/g of formulation. The Solubility ([1]; Form I, Tween 80, Room Temp) was 1 mg/g of formulation, the Solubility ([1]; Form I, Water, Room Temp) was <0.0002 mg/g of formulation and the Solubility ([1]; Form I, pH 1.3 aqueous, Room Temp) was 0.001 mg/g of formulation. For the same compound, the Solubility ([1]; Form I, pH 2.2 to 10.1 aqueous, Room Temp) was <0.0002 mg/g of formulation, the Solubility ([1]; aqueous medium, read-out: aqueous solubility) was under 0.2 µg/mL and the “solubility in Miglyol 812” value ([1]; relative to a fully efficacious amount of solubilized compound in a 500 mg capsule) was “not sufficiently soluble”. The Cmax [2, 4] was 4.06 ± 0.49 µM, the Tmax [2, 4] was 3.33 ± 1.03 h and the AUC(0-t) [2, 4] was 65.4 ± 14.7 µM·h. The Cmax [2, 5] was 3.04 ± 0.44 µM, the Tmax [2, 5] was 3.67 ± 0.82 h and the AUC(0-t) [2, 5] was 49 ± 11.5 µM·h. The Cmax [2, 6] was 4.22 ± 0.54 µM, the Tmax [2, 6] was 4.67 ± 1.63 h and the AUC(0-t) [2, 6] was 69 ± 14.2 µM·h. The Chemical stability ([3]; 1 mg Compound I/g vehicle, 1:1 Imwitor 742:Tween 80 +0.05% PG + 0.05% BHA, 1 wk) was 102.2 % claim, the Chemical stability ([3]; 1 mg Compound I/g vehicle, 1:1 Imwitor 742:Tween 80 +0.05% PG + 0.05% BHA, 18 wk) was 94.7 % claim and the Chemical stability ([3]; 1 mg Compound I/g vehicle, 1:1 Imwitor 742:Tween 80 +0.05% PG + 0.05% BHT, 1 wk) was 99.4 % claim. For the same compound, the Chemical stability ([3]; 1 mg Compound I/g vehicle, 1:1 Imwitor 742:Tween 80 +0.05% PG + 0.05% BHT, 18 wk) was 93.7 % claim, the Chemical stability ([3]; 1 mg Compound I/g vehicle, 1:1 Imwitor 742:Tween 80 +0.05% PG + 0.05% NaSO3, 1 wk) was 98.5 % claim and the Chemical stability ([3]; 1 mg Compound I/g vehicle, 1:1 Imwitor 742:Tween 80 +0.1% Ascorbic Acid Palmitate, 1 wk) was 94.2 % claim. It also gave a Chemical stability ([3]; 1 mg Compound I/g vehicle, 1:1 Imwitor 742:Tween 80 +0.1% Ascorbic Acid Palmitate, 4 wk) of 89.4 % claim, a Chemical stability ([3]; 1 mg Compound I/g vehicle, 1:1 Imwitor 742:Tween 80 +0.1% BHA, 1 wk) of 98.4 % claim and a Chemical stability ([3]; 1 mg Compound I/g vehicle, 1:1 Imwitor 742:Tween 80 +0.1% BHA, 4 wk) of 96.1 % claim. It also gave a Chemical stability ([3]; 1 mg Compound I/g vehicle, 1:1 Imwitor 742:Tween 80 +0.1% Propyl Gallate, 1 wk) of 99.6 % claim, a Chemical stability ([3]; 1 mg Compound I/g vehicle, 1:1 Imwitor 742:Tween 80 +0.1% Propyl Gallate, 4 wk) of 97.7 % claim and a Chemical stability ([3]; 1 mg Compound I/g vehicle, 1:1 Imwitor 742:Tween 80 +0.1% Propyl Gallate, 18 wk) of 93.1 % claim. For the same compound, the Chemical stability ([3]; 1 mg Compound I/g vehicle, 1:1 Imwitor 742:Tween 80 +0.1% α-tocopherol, 1 wk) was 86.7 % claim, the Chemical stability ([3]; 1 mg Compound I/g vehicle, 1:1 Imwitor 742:Tween 80 +0.1% α-tocopherol, 4 wk) was 71.1 % claim and the Chemical stability ([3]; 1 mg Compound I/g vehicle, 1:1 Imwitor 742:Tween 80, 1 wk) was 95.2 % claim. The Chemical stability ([3]; 1 mg Compound I/g vehicle, 1:1 Imwitor 742:Tween 80, 4 wk) was 90.4 % claim, the Chemical stability ([3]; 1 mg Compound I/g vehicle, 1:1 Imwitor 742:Tween 80, 5 wk) was 83.8 % claim and the Chemical stability ([3]; 1 mg Compound I/g vehicle, 1:1 Imwitor 742:Tween 80, 18 wk) was 73.7 % claim. It also gave a Chemical stability ([3]; 1 mg Compound I/g vehicle, 6:4 Imwitor 742:Propylene Glycol, 1 wk) of 100.2 % claim, a Chemical stability ([3]; 1 mg Compound I/g vehicle, 6:4 Imwitor 742:Propylene Glycol, 2 wk) of 100.6 % claim and a Chemical stability ([3]; 1 mg Compound I/g vehicle, 6:4 Imwitor 742:Propylene Glycol, 4 wk) of 100.0 % claim. It also gave a Chemical stability ([3]; 1 mg Compound I/g vehicle, 6:4 Imwitor 742:Propylene Glycol, 8 wk) of 100.6 % claim, a Chemical stability ([3]; 1 mg Compound I/g vehicle, 9:1 Imwitor 742:Tween 80, 1 wk) of 99.6 % claim and a Chemical stability ([3]; 1 mg Compound I/g vehicle, 9:1 Imwitor 742:Tween 80, 9.5 wk) of 96.4 % claim. It also gave a Chemical stability ([3]; 1 mg Compound I/g vehicle, Capmul MCM C8, 1 wk) of 99.0 % claim, a Chemical stability ([3]; 1 mg Compound I/g vehicle, Capmul MCM C8, 32.5 wk) of 78.1 % claim and a Chemical stability ([3]; 1 mg Compound I/g vehicle, Capmul PG-8, 1 wk) of 99.7 % claim. It also gave a Chemical stability ([3]; 1 mg Compound I/g vehicle, Imwitor 742, 1 wk) of 99.8 % claim, a Chemical stability ([3]; 1 mg Compound I/g vehicle, Imwitor 742, 5 wk) of 98.8 % claim and a Chemical stability ([3]; 1 mg Compound I/g vehicle, Imwitor 742, 9.5 wk) of 99.8 % claim. The Chemical stability ([3]; 1 mg Compound I/g vehicle, Imwitor 742, 32.5 wk) was 97.0 % claim, the Chemical stability ([3]; at 10 mg/g, Imwitor 742 + 0.75 eq HCl, 1 wk) was 100.6 % claim and the Chemical stability ([3]; at 10 mg/g, Imwitor 742:Tween 80 +0.75 eq Benzenesulfonic Acid (acid not completely dissolved), 1 wk) was 99.1* % claim. For the same compound, the Chemical stability ([3]; at 10 mg/g, Imwitor 742:Tween 80 +0.75 eq HCl, 1 wk) was 95.2 % claim, the Chemical stability ([3]; at 10 mg/g, Imwitor 742:Tween 80 +0.75 eq Phosphoric Acid, 1 wk) was 96.4 % claim and the Chemical stability ([3]; at 10 mg/g, Imwitor 742:Tween 80 +0.75 eq Sulfuric Acid, 1 wk) was 82.9 % claim. It also gave a Chemical stability ([3]; at 10 mg/g, PEG 400 + 0.75 eq HCl, 1 wk) of 60.3 % claim and a Chemical stability ([3]; at 10 mg/g, Propylene Glycol + 0.75 eq HCl, 1 wk) of 95.2 % claim.
